Key:
[1] = tested on: bioprinted full thickness skin tissue; test: Histological analysis of bioprinted skin tissue after irritant treatment (H&E, CK5/IVL, CK10, collagen 3, PCNA, TUNEL); format: cell-based, human; settings: 1% TRITON X-100, 1 hour exposure
From the text: (§1) Bio-ink was generated by a cellular mixture of 100% primary adult human dermal fibroblasts (HDFa) in 8% gelatin (NOVOGEL 2.0) at a concentration of 100 million cells per milliliter. The cell: gelatin ratio was altered to reduce the cellular density of the dermal sheet to better mimic dermal tissue in native skin. Three-dimensional bio-ink constructs were printed by continuous deposition using the NOVOGEN BIOPRINTER platform in a 4 mm×4 mm×0.5 mm base to create a dermal structure resembling a sheet. One tissue construct was printed per transwell in a 6-well plate. The transwell printing surface contained a polytetrafluoroethylene (PTFE) membrane coated with equimolar mixture of types I and III collagen (bovine) with pores 3 μm in size. Epidermal cell paste containing a mixture of 100% primary neonatal human epidermal keratinocytes (HEKn) was then printed on top of the dermal bio-ink. Cell paste was measured post print at 87.1% viable by trypan exclusion assay. Cell numbers in the deposited epidermal layer was estimated at 60,000 cells by cell counting on a Cell-O-Meter. Immediately following the print, constructs were placed at 4° C. for 10 minutes. Cold media was then added to the outer well of the transwell in a volume of 3 ml. The media used for subsequent growth and maintenance of the skin tissue was a 50:50 ratio of HDFa: HEKn media. The initial volume added was sufficient to submerge the structure. All subsequent media changes used warmed media (37° C.) added to the outer well of the transwell and not to the inner basket. Media was changed 48 hours later and reduced to a volume of 1.5 ml per well to bring the structure to an air-liquid interface (ALI). Media and subsequently changed 48 hours after that (day 4) at a volume of 1.5 ml. On day 5, media was changed and further reduced to 1 ml per well and subsequently changed daily. On day 10, skin tissues were subject to a skin irritation test method using 1% TRITON X-100. 1% TRITON X-100 is a known irritant and reference chemical currently used in other 3D skin models. Methods were based on OECD guidelines 439 and 431 for applying human skin models to in vitro skin irritation or corrosion, respectively. On day 10, conditioned media was saved (designated time=0) and 1 ml of fresh media was added to the outer well of the transwell. The printed skin tissue was then treated with 20 μl of PBS as a negative control or with 20 μl of 1% TRITON X-100 as a positive control and known irritant. Test substances were pipetted manually to the apical surface of the tissue. TRITON X-100 was diluted to a 1% aqueous solution in deionized water and sterile filtered through a 20 micron filter before use. Samples were incubated for 30 minutes at 37° C. followed by 30 minutes at room temperature for a total of 60 minutes. Media was saved (designated time=1 hour). Samples were then washed extensively by PBS rinsing. Transwells were then placed in a new 6-well plate with fresh media (1 ml) added to the outer well then placed back into 37° C. overnight. The media was then changed at 24 hours and at 48 hours post treatment. Total media collected included time points=−48, 0, 1, 24, and 48 hours. IL-1α production (R&D Systems) was analyzed in a colorimetric assays per manufacturer's protocol. Media was analyzed for lactate dehydrogenase as a marker for cytotoxicity. IL-1α production was assessed as a complementary endpoint to classic cytotoxicity testing to improve predictability of irritants. Keratinocytes normally produce and release inflammatory cytokine IL-1α in response to chemical or physical stress. At 48 hours post treatment (day 12), tissues were either lysed for RNA extraction and subsequent qPCR analysis, or tested for viability by alamar blue assay then rinsed in PBS and fixed with 2% PFA for histological analysis. Alamar blue (Life Technologies) was added per manufacturer's instructions to media and incubated with tissue constructs (1 ml) at 37° C. for 3 hours. […]

[2] = tested on: bioprinted full thickness skin tissue; test: Gene expression (qPCR) analysis of bioprinted skin tissue after irritant treatment; format: cell-based, human; settings: 1% TRITON X-100, 1 hour exposure
From the text: as §1, with “Test substances were pipetted manually to the apical surface of the tissue. TRITON X-100 was diluted to a 1% aqueous solution in deionized water and sterile filtered through a 20 micron filter before use. Samples were incubated for 30 minutes at 37° C. followed by 30 minutes at room temperature for a total of 60 minutes. Media was saved (designated time=1 hour). Samples were then washed extensively by PBS rinsing. Transwells were then placed in a new 6-well plate with fresh media (1 ml) added to the outer well then placed back into 37° C. overnight. The media was then changed at 24 hours and at 48 hours post treatment. Total media collected included time points=−48, 0, 1, 24, and 48 hours.” left out, “irritants.” for “irritants. Keratinocytes normally produce and release inflammatory cytokine IL-1α in response to chemical or physical stress. At 48 hours post treatment (day 12), tissues were either lysed for RNA extraction and subsequent qPCR analysis, or tested for viability by alamar blue assay then rinsed in PBS and fixed with 2% PFA for histological analysis. Alamar blue (Life Technologies) was added per manufacturer's instructions to media and incubated with tissue constructs (1 ml) at 37° C. for 3 hours.”

[3] = 48 hours post treatment (day 12)

Question: How did the “CK5 positive basal keratinocyte layer” value [1, 3] turn out when TRITON X-100 was run?
Answer: fragmented

Question: And the “Collagen 3 staining compared to the PBS control” value [1, 3]?
Answer: reduction in dermal fibroblast function

Question: And the “H&E histology” value [1, 3]?
Answer: separation of the epidermal and dermal layers

Question: And the “macroscopic appearance of treated tissues” value [1, 3]?
Answer: appeared similar to PBS control tissues macroscopically

Question: What about the “proliferation by PCNA staining” value ([1]; dermal fibroblasts and basal layer, day 12) of the same substance?
Answer: reduction in proliferation

Question: What about the “apoptosis by TUNEL staining” value ([1]; dermal layer, day 12) of the same substance?
Answer: increase in apoptosis

Question: What about the “CK1 and CK10 gene expression” value ([2]; 48 hours post exposure) of the same substance?
Answer: reduced

Question: And the “collagen production of types 1, 3, and 4 collagen (gene expression)” value ([2]; 48 hours post exposure)?
Answer: reduced

Question: What about the “expression of both epidermal and dermal markers” value ([2]; 48 hours post exposure) of the same substance?
Answer: dramatically reduces

Question: What about the “IL1α gene expression increase in comparison to the PBS control” value ([2]; 48 hours post treatment) of the same substance?
Answer: about 3 fold

From patent US11529436B2, “Engineered three-dimensional skin tissues, arrays thereof, and methods of making the same” (Organovo, Inc., priority 2014, dated 2022)
